Legend:
Assay type in all cases: functional
Settings in all cases: route intraperitoneal
[1] = system: Mus musculus; experiment: Antiinflammatory activity against carrageenan-induced paw oedema in mouse at 1 mg/kg, ip treated 30 mins before carrageenan challenge measured after 2 hrs by plethysmometry analysis
[2] = system: Mus musculus; experiment: Antiinflammatory activity against bradykinin-induced paw oedema in mouse at 1 mg/kg, ip treated 30 mins before bradykinin challenge measured after 30 mins by plethysmometry analysis
[3] = system: Mus musculus; experiment: Antiinflammatory activity against carrageenan-induced paw oedema in mouse at 1 mg/kg, ip treated 30 mins before carrageenan challenge measured after 1 hr by plethysmometry analysis
[4] = system: Mus musculus; experiment: Antiinflammatory activity against carrageenan-induced paw oedema in mouse at 1 mg/kg, ip treated 30 mins before carrageenan challenge measured after 6 hrs by plethysmometry analysis
[5] = system: Mus musculus; experiment: Antiinflammatory activity against bradykinin-induced paw oedema in mouse at 1 mg/kg, ip treated 30 mins before bradykinin challenge measured after 15 mins by plethysmometry analysis
[6] = system: Mus musculus; experiment: Antiinflammatory activity against bradykinin-induced paw oedema in mouse at 1 mg/kg, ip treated 30 mins before bradykinin challenge measured after 240 mins by plethysmometry analysis
[7] = system: Mus musculus; experiment: Antiinflammatory activity against carrageenan-induced paw oedema in mouse at 1 mg/kg, ip treated 30 mins before carrageenan challenge measured after 5 hrs by plethysmometry analysis
[8] = system: Mus musculus; experiment: Antiinflammatory activity against bradykinin-induced paw oedema in mouse at 1 mg/kg, ip treated 30 mins before bradykinin challenge measured after 120 mins by plethysmometry analysis
[9] = system: Mus musculus; experiment: Antiinflammatory activity against carrageenan-induced paw oedema in mouse at 1 mg/kg, ip treated 30 mins before carrageenan challenge measured after 4 hrs by plethysmometry analysis
[10] = system: Mus musculus; experiment: Antiinflammatory activity against bradykinin-induced paw oedema in mouse at 1 mg/kg, ip treated 30 mins before bradykinin challenge measured after 60 mins by plethysmometry analysis

## COc1cc(/C=C/C(=O)/C=C/c2ccc(O)c(OC)c2)ccc1O
[1]
  inhibition in vivo at 1 mg/kg: 22.9%
[2]
  inhibition in vivo at 1 mg/kg: 4%
[3]
  inhibition in vivo at 1 mg/kg: 14.6%
[4]
  inhibition in vivo at 1 mg/kg: 10.1%
[5]
  inhibition in vivo at 1 mg/kg: 5.04%
[6]
  inhibition in vivo at 1 mg/kg: 2.2%
[7]
  inhibition in vivo at 1 mg/kg: 15.1%
[8]
  inhibition in vivo at 1 mg/kg: 2.5%
[9]
  inhibition in vivo at 1 mg/kg: 17.4%
[10]
  inhibition in vivo at 1 mg/kg: 3.25%
